In US11806367B2, “Methods of treating lysosomal disorders” (The Regents of the University of California, priority 2017, dated 2023):
Read-outs that look alike come from different tables or passages of the source.

Experiments:
Ctns^−/− mice = test system: Ctns^−/− mice
Experimental: Ctns^−/− mice were exposed to myeloablative drugs currently used in clinic for HSC transplantation, Busulfan (Bu) and Cyclophosphamide (Cy) to test if drug-mediated myeloablation allow efficient engraftment of Ctns-expressing HSC in the preclinical model, decreased tissue cystine and to determine if any unexpected toxicity occurs because of cystinosis. Drugs were injected intraperitoneally (IP) in Ctns^−/− mice and WT mice as controls.

[1] = affected patients; cited from earlier work

Compound: O=P1(N(CCCl)CCCl)NCCCO1 (stereo not shown) [Cy, Cyclophosphamide]
- toxicity in Ctns^−/− mice (Ctns^−/− mice; IP injection, 4 months post-transplant, compared to WT controls): not toxic

Compound: CS(=O)(=O)OCCCCOS(C)(=O)=O [Bu, Busulfan]
- donor cell engraftment measured in the peripheral blood (Ctns^−/− mice; 4 months post-transplant): 94.0±0.8%
- toxicity in Ctns^−/− mice (Ctns^−/− mice; mouse, in vivo, ip): not toxic

Compound: NCCS [cysteamine, mercaptoethylamine]
- effect on renal Fanconi syndrome [1]: has no effect
